Test results taken from patent US10227331B2 (priority 2015, dated 2019).

Experiments:
NDM-1 = NDM-1 (Klebsiella pneumoniae, UniProt C7C422); assay: biochemical; assay type: biochemical; conditions: CCF2-FA substrate, 2 hours at 25° C; read-out: NDM-1 IC50
Method in brief: (§1)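 Test compound, enzyme and the FRET cephalosporin substrate CCF2-FA are incubated together for 2 hours at 25° C. Cleavage is followed by fluorescence, and IC50 values are derived from semi-logarithmic inhibition curves fitted with a 4-parameter model.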

IMP-1 = IMP-1 (Serratia marcescens, UniProt P52699); assay: biochemical; assay type: biochemical; conditions: CCF2-FA substrate, 2 hours at 25° C; read-out: IMP-1 IC50
Method in brief: as §1

[1] = system: Escherichia coli expressing NDM-1 (CLB30005, CLB30016); assay type: cell-based; conditions: with imipenem 1 μg/ml; 95% inhibition of bacterial growth
Method in brief: (§2)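 Clinical strains grown overnight on blood agar, then diluted 1:100 in 1.1× CAMHB and exposed to test compound with imipenem at 1 μg/ml. Incubation was 22–24 h at 35° C; growth was read by absorbance to find the compound concentration restoring imipenem susceptibility.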

[2] = system: Serratia marcescens expressing IMP-1 (CL5741); assay type: cell-based; conditions: with imipenem 1 μg/ml; 95% inhibition of bacterial growth
Method in brief: as §2

[3] = system: Klebsiella pneumoniae expressing VIM-1 (IHMA599644); assay type: cell-based; conditions: with imipenem 1 μg/ml; 95% inhibition of bacterial growth
Method in brief: as §2

[4] = system: P. aeruginosa expressing IMP-1, efflux+ (MB9798); assay type: cell-based, Pseudomonas aeruginosa; conditions: for P. aeruginosa expressing IMP-1, efflux+ (MB9798) MITC95: imipenem at 2 μg/mL, in the presence of a class A, C, D serine β-lactamase inhibitor closely related to relebactam; for Efflux ratio: ratio MITC95 PA_9798/MITC95 PA_9799
Excerpt: (§3) The strain background is Pseudomonas aeruginosa PAO1.

VIM-1 = VIM-1 (Pseudomonas aeruginosa (strain ATCC 15692 / DSM 22644 / CIP 104116 / JCM 14847 / LMG 12228 / 1C / PRS 101 / PAO1), UniProt A0A0F7KYQ8); assay: biochemical; conditions: CCF2-FA substrate, 2 hours at 25° C
Method in brief: as §1

[5] = system: P. aeruginosa expressing IMP-1, efflux− (MB9799); assay: Efflux: concentration of MBL inhibitor which restores susceptibility to imipenem; assay type: cell-based, Pseudomonas aeruginosa; conditions: imipenem at 2 μg/mL, in the presence of a class A, C, D serine β-lactamase inhibitor closely related to relebactam
Excerpt: as §3

Chain of NDM-1 (C7C422 whole entry, looked up, species assumed): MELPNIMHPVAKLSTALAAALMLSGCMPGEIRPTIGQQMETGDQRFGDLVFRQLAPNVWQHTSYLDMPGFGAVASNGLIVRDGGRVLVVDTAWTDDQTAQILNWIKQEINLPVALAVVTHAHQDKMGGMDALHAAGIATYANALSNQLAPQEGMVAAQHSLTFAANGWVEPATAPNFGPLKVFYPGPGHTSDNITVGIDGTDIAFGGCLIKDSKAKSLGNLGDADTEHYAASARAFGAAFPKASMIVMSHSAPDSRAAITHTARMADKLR
Chain of IMP-1 (P52699 whole entry, looked up, species assumed): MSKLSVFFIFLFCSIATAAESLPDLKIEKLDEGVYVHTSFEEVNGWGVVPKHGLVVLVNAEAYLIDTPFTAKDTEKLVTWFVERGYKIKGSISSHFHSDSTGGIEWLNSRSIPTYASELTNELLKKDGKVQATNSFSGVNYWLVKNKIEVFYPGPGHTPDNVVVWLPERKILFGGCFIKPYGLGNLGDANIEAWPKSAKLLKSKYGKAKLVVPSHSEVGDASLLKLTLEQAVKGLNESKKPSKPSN

SMILES	IC50 (NDM-1)	IC50 (IMP-1)	Escherichia coli expressing NDM-1 (CLB30016) MITC95 [1]	Serratia marcescens expressing IMP-1 (CL5741) MITC95 [2]	Klebsiella pneumoniae expressing VIM-1 (IHMA599644) MITC95 [3]	P. aeruginosa expressing IMP-1, efflux+ (MB9798) MITC95 [4]	Efflux ratio [4]	IC50 (VIM-1)	P. aeruginosa expressing IMP-1, efflux− (MB9799) MITC95 [5]
C[C@H](N)CS(=O)(=O)c1ccc(-c2cccc3[nH]c(N)nc23)c(-c2nn[nH]n2)c1S(N)(=O)=O [Example 92, 3-(2-amino-1H-benzo[d]imidazol-4-yl)-6-((S)-2-aminopropylsulfonyl)-2-(2H-tetrazol-5-yl)benzenesulfonamide]	0.141 nM	0.612 nM	0.2969 µM	0.6406 µM	0.8542 µM	0.4777 µM	0.81	0.223 nM	0.5893 µM
C[C@H](N)CS(=O)(=O)c1ccc(-c2cccc3sc(N)nc23)c(-c2nn[nH]n2)c1S(N)(=O)=O [Example 93, 3-(2-aminobenzo[d]thiazol-4-yl)-6-((S)-2-aminopropylsulfonyl)-2-(2H-tetrazol-5-yl)benzenesulfonamide]	0.0732 nM	0.13 nM	1.172 µM	0.7813 µM	3.125 µM	0.7813 µM	1.00	0.13 nM	0.7813 µM
CC(C)(N)CS(=O)(=O)c1ccc(-c2cccc3sc(N)nc23)c(-c2nn[nH]n2)c1S(N)(=O)=O [Example 94, 6-(2-amino-2-methylpropylsulfonyl)-3-(2-aminobenzo[d]thiazol-4-yl)-2-(2H-tetrazol-5-yl)benzenesulfonamide]	0.206 nM	0.504 nM	0.7813 µM	1.563 µM	3.125 µM	3.125 µM	2.00	0.222 nM	1.563 µM
Nc1nc2c(-c3ccc(S(=O)(=O)CC4(N)CC4)c(S(N)(=O)=O)c3-c3nn[nH]n3)cccc2s1 [Example 95, 3-(2-aminobenzo[d]thiazol-4-yl)-6-((1-aminocyclopropyl)methylsulfonyl)-2-(2H-tetrazol-5-yl)benzenesulfonamide]	0.138 nM	0.221 nM	1.563 µM	1.563 µM	6.25 µM	3.125 µM	2.00	0.293 nM	1.563 µM
Nc1nc2c(-c3ccc(S(=O)(=O)CC(N)CO)c(S(N)(=O)=O)c3-c3nn[nH]n3)cccc2s1 (centres unmarked) [Example 96, 6-(2-amino-3-hydroxypropylsulfonyl)-3-(2-aminobenzo[d]thiazol-4-yl)-2-(2H-tetrazol-5-yl)benzenesulfonamide]	0.122 nM	0.265 nM	1.563 µM	1.563 µM	3.125 µM	0.7813 µM	0.50	0.185 nM	1.563 µM
NCC(O)CS(=O)(=O)c1ccc(-c2cccc3sc(N)nc23)c(-c2nn[nH]n2)c1S(N)(=O)=O (centres unmarked) [Example 97, 6-(3-amino-2-hydroxypropylsulfonyl)-3-(2-aminobenzo[d]thiazol-4-yl)-2-(2H-tetrazol-5-yl)benzenesulfonamide]	0.0645 nM	0.171 nM	0.7813 µM	1.563 µM	1.563 µM	0.3906 µM		0.249 nM	0.7813 µM
